From US12384789B2, “Compounds for treating Huntington's disease” (PTC Therapeutics, Inc., priority 2017, dated 2025)

System: Endogenous Huntingtin Protein
Assay: Endogenous Huntingtin Protein Assay (Meso Scale Discovery ELISA-based electrochemiluminescence)
Assay type: cell-based
Settings: MSD electrochemiluminescence, Table 1
Summary of the method: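 MSD electrochemiluminescence sandwich ELISA: MW1 (expanded polyQ) or MAB2166 capture antibody at 1 μg/mL, samples incubated overnight at 4° C. Detection with rabbit monoclonal #5656S then SULFO-TAG anti-rabbit antibody, each 0.25 μg/mL for 1 h at room temperature.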

Row | SMILES | IC50 [nM]
1 | Cc1cc(C2CCNCC2)nc2ccc(-c3ccc4nn(C)cc4c3)cc12 [Compound 5, 4-methyl-6-(2-methyl-2H-indazol-5-yl)-2-(piperidin-4-yl)quinoline] | 1000 to 3000
2 | CCN1CCC(c2nnc3cc(-c4cc(C)c5nc(C)cn5n4)cc(F)c3n2)CC1 [Compound 70, 7-(2,8-dimethylimidazo[1,2-b]pyridazin-6-yl)-3-(1-ethylpiperidin-4-yl)-5-fluoro-1,2,4-benzotriazine] | ≤ 100
3 | Cc1cn2nc(-c3nnc4cc(C5CCNCC5)ccc4n3)cc(C)c2n1 [Compound 44, 3-(2,8-dimethylimidazo[1,2-b]pyridazin-6-yl)-7-(piperidin-4-yl)-1,2,4-benzotriazine] | 100 to 500
4 | Cc1cn2nc(-c3cc(F)c4nc(C5CCNCC5)ccc4c3)cc(C)c2n1 [Compound 45, 6-(2,8-dimethylimidazo[1,2-b]pyridazin-6-yl)-8-fluoro-2-(piperidin-4-yl)quinoline] | ≤ 100
5 | Cc1cn2nc(-c3cc(F)c4cc(C5CCCNC5)nnc4c3)cc(C)c2n1 (stereo not shown) [Compound 216, 7-(2,8-dimethylimidazo[1,2-b]pyridazin-6-yl)-5-fluoro-3-(piperidin-3-yl)cinnoline] | ≤ 100
6 | Cc1cn2nc(-c3cc(F)c4cc(C5CCN(CCO)CC5)nnc4c3)cc(C)c2n1 [Compound 75, 2-{4-[7-(2,8-dimethylimidazo[1,2-b]pyridazin-6-yl)-5-fluorocinnolin-3-yl]piperidin-1-yl}ethanol] | ≤ 100
7 | Cc1cn2nc(-c3cc(F)c4cc(C5CCNCC5)nnc4c3)cc(CCO)c2n1 [Compound 207, 2-{6-[5-fluoro-3-(piperidin-4-yl)cinnolin-7-yl]-2-methylimidazo[1,2-b]pyridazin-8-yl}ethan-1-ol] | ≤ 100
8 | Cc1cn2nc(-c3cc(F)c4cc(C5CCNCC5)nnc4c3)cc(OCCCn3cccn3)c2n1 [Compound 141, 5-fluoro-7-{2-methyl-8-[3-(1H-pyrazol-1-yl)propoxy]imidazo[1,2-b]pyridazin-6-yl}-3-(piperidin-4-yl)cinnoline] | ≤ 100
9 | Cc1cn2nc(-c3cc(F)c4cc(C5CCN(CCCn6cnc7ccccc76)CC5)nnc4c3)cc(C)c2n1 [Compound 145, 3-{1-[3-(1H-benzimidazol-1-yl)propyl]piperidin-4-yl}-7-(2,8-dimethylimidazo[1,2-b]pyridazin-6-yl)-5-fluorocinnoline] | ≤ 100
10 | Cc1cn2nc(-c3cc(F)c4cc(C5CCNCC5)nnc4c3)ccc2n1 [Compound 99, 5-fluoro-7-(2-methylimidazo[1,2-b]pyridazin-6-yl)-3-(piperidin-4-yl)cinnoline] | ≤ 100
11 | Cc1cc(-c2ccc3cc(C4CCNCC4)ncc3c2)cc2cn(C)nc12 [Compound 30, 7-(2,7-dimethyl-2H-indazol-5-yl)-3-(piperidin-4-yl)isoquinoline] | 100 to 500
12 | Cc1nc2c(F)cc(-c3cc(F)c4nc(C5CCNCC5)nnc4c3)cc2o1 [Compound 68, 5-fluoro-7-(4-fluoro-2-methyl-1,3-benzoxazol-6-yl)-3-(piperidin-4-yl)-1,2,4-benzotriazine] | ≤ 100
13 | Cn1cc2cc(-c3ccc4nc(C5CCNCC5)cnc4c3)cc(C(F)(F)F)c2n1 [Compound 24, 6-[2-methyl-7-(trifluoromethyl)-2H-indazol-5-yl]-2-(piperidin-4-yl)quinoxaline] | 100 to 500
14 | Cc1cn2nc(-c3cc(F)c4cc(C5CCNCC5)nnc4c3)cc(OCCCn3ccnc3)c2n1 [Compound 142, 5-fluoro-7-{8-[3-(1H-imidazol-1-yl)propoxy]-2-methylimidazo[1,2-b]pyridazin-6-yl}-3-(piperidin-4-yl)cinnoline] | 100 to 500
15 | Cc1cc(-c2ccc3nc(C4CCNCC4)nnc3c2)cc2cn(C)nc12 [Compound 16, 7-(2,7-dimethyl-2H-indazol-5-yl)-3-(piperidin-4-yl)-1,2,4-benzotriazine] | 100 to 500
16 | Cc1cn2nc(-c3cc(F)c4cc(C5C[C@@H](C)N[C@@H](C)C5)nnc4c3)cc(C)c2n1 (stereo partly drawn) [Compound 90, 7-(2,8-dimethylimidazo[1,2-b]pyridazin-6-yl)-3-[(2R,4r,6S)-2,6-dimethylpiperidin-4-yl]-5-fluorocinnoline] | ≤ 100
